Assay results: the supplement of paper PMC5908809

What was measured:
[1] = test system: normal NK cells expanded with K562-aAPC; assay: drug sensitivity score (DSS) (DSS units); higher = more sensitive; extreme values may be limits of the assay; conditions: 72 h; IL-2 2.5 ng/mL
Method: (§1)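 Drug sensitivity and resistance testing on K562-aAPC-expanded normal NK cells: 5 concentrations (10-fold steps over a 10,000-fold range), 72 h at 37 °C, viability by CellTiter-Glo normalised to DMSO and benzethonium chloride controls; DSS from the fitted curve.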

KHYG-1 (IL-2 2.5 ng/mL) [2] = assay: percent inhibition of viability; higher = more inhibition; conditions: 72 h
SNK-6 (IL-2 2.5 ng/mL) [3] = assay: as above; conditions: 72 h
[4] = test system: normal primary NK cells, pool 1 (3 donors) (IL-2 2.5 ng/mL); assay: as above; conditions: 72 h
DERL-7 (IL-2 2.5 ng/mL) [5] = assay: as above; conditions: 72 h
KAI3 (IL-2 2.5 ng/mL) [6] = assay: as above; conditions: 72 h
IMC-1 (IL-2 20 ng/mL) [7] = assay: as above; conditions: 72 h
NKL (IL-2 2.5 ng/mL) [8] = assay: as above; conditions: 72 h
[9] = test system: normal primary NK cells, pool 1 (3 donors), resting (IL-2 0 ng/mL); assay: as above; conditions: 72 h
YT (IL-2 2.5 ng/mL) [10] = assay: as above; conditions: 72 h
NK-YS (IL-2 2.5 ng/mL) [11] = assay: as above; conditions: 72 h
[12] = test system: normal primary NK cells, pool 3 (3 donors) (IL-2 2.5 ng/mL); assay: as above; conditions: 72 h
[13] = test system: normal primary NK cells, pool 2 (3 donors) (IL-2 2.5 ng/mL); assay: as above; conditions: 72 h
NK-92 (IL-2 2.5 ng/mL) [14] = assay: as above; conditions: 72 h
KHYG-1 (IL-2 2.5 ng/mL) [15] = assay: drug sensitivity score (DSS) (DSS units); higher = more sensitive; extreme values may be limits of the assay; conditions: 72 h
SNK-6 (IL-2 2.5 ng/mL) [16] = assay: as above; conditions: 72 h
[17] = test system: normal primary NK cells, pool 1 (3 donors) (IL-2 2.5 ng/mL); assay: as above; conditions: 72 h
DERL-7 (IL-2 2.5 ng/mL) [18] = assay: as above; conditions: 72 h
KAI3 (IL-2 2.5 ng/mL) [19] = assay: as above; conditions: 72 h
IMC-1 (IL-2 20 ng/mL) [20] = assay: as above; conditions: 72 h
NKL (IL-2 2.5 ng/mL) [21] = assay: as above; conditions: 72 h
[22] = test system: normal primary NK cells, pool 1 (3 donors), resting (IL-2 0 ng/mL); assay: as above; conditions: 72 h
YT (IL-2 2.5 ng/mL) [23] = assay: as above; conditions: 72 h
NK-YS (IL-2 2.5 ng/mL) [24] = assay: as above; conditions: 72 h
[25] = test system: normal primary NK cells, pool 3 (3 donors) (IL-2 2.5 ng/mL); assay: as above; conditions: 72 h
[26] = test system: normal primary NK cells, pool 2 (3 donors) (IL-2 2.5 ng/mL); assay: as above; conditions: 72 h
NK-92 (IL-2 2.5 ng/mL) [27] = assay: as above; conditions: 72 h
[28] = test system: normal NK cells expanded with K562-aAPC; assay: percent inhibition of viability; higher = more inhibition; conditions: 72 h, IL-2 2.5 ng/mL
Method: as §1

C[C@@H]1C[C@H]2[C@@H]3CCC4=CC(=O)C=C[C@]4(C)[C@@]3(F)[C@@H](O)C[C@]2(C)[C@@]1(O)C(=O)CO [Dexamethasone] (max concentration tested 10000 nM)
Conditions | drug sensitivity score
DERL-7 (IL-2 2.5 ng/mL) [18] | 37.9
IMC-1 (IL-2 20 ng/mL) [20] | 0
KAI3 (IL-2 2.5 ng/mL) [19] | 1.14
KHYG-1 (IL-2 2.5 ng/mL) [15] | 15.6
NK-92 (IL-2 2.5 ng/mL) [27] | 0
NK-YS (IL-2 2.5 ng/mL) [24] | 1.07
NKL (IL-2 2.5 ng/mL) [21] | 24.6
SNK-6 (IL-2 2.5 ng/mL) [16] | 0
YT (IL-2 2.5 ng/mL) [23] | 9.59
[1] | 25.3
[17] | 28.9
[22] | 35.4
[25] | 17.3
[26] | 26

percent inhibition of viability [%]
Conditions | 1 nM | 10 nM | 100 nM | 1000 nM | 10000 nM
DERL-7 (IL-2 2.5 ng/mL) [5] | -2.49 | 63.1 | 100 | 101 | 101
IMC-1 (IL-2 20 ng/mL) [7] | -2.17 | -4.52 | -10.6 | -12.7 | -2.61
KAI3 (IL-2 2.5 ng/mL) [6] | -8.83 | -13.5 | -3.07 | -3.87 | 31.2
KHYG-1 (IL-2 2.5 ng/mL) [2] | -1.02 | 14.1 | 39.9 | 50.3 | 69.1
NK-92 (IL-2 2.5 ng/mL) [14] | -14.3 | -20.1 | -19.3 | -2.77 | 5.06
NK-YS (IL-2 2.5 ng/mL) [11] | -5.2 | -1.29 | 1.38 | 4.74 | 18.8
NKL (IL-2 2.5 ng/mL) [8] | 12.3 | 38.1 | 57.3 | 64.1 | 67.1
SNK-6 (IL-2 2.5 ng/mL) [3] | -0.75 | -7.56 | -4.28 | -3.37 | 8.99
YT (IL-2 2.5 ng/mL) [10] | -0.83 | 11.3 | 22.4 | 36.4 | 45.4
[4] | 2.6 | 42 | 68.9 | 80.5 | 86.6
[9] | 8.34 | 65.5 | 83.1 | 84.5 | 86.9
[12] | -8.83 | 19.5 | 43.5 | 50.7 | 58
[13] | 2.03 | 37.3 | 63.2 | 69.1 | 74.5
[28] | 1.98 | 35.4 | 61.5 | 68.6 | 77.8

CN(C)CCN1C(=O)c2cccc3cc(N)cc(c23)C1=O [Amonafide] (max concentration tested 10000 nM)
Conditions | drug sensitivity score
DERL-7 (IL-2 2.5 ng/mL) [18] | 8.69
IMC-1 (IL-2 20 ng/mL) [20] | 8.17
KAI3 (IL-2 2.5 ng/mL) [19] | 10.4
KHYG-1 (IL-2 2.5 ng/mL) [15] | 8.07
NK-92 (IL-2 2.5 ng/mL) [27] | 9.91
NK-YS (IL-2 2.5 ng/mL) [24] | 10
NKL (IL-2 2.5 ng/mL) [21] | 9.52
SNK-6 (IL-2 2.5 ng/mL) [16] | 8.74
YT (IL-2 2.5 ng/mL) [23] | 7.63
[1] | 9.65
[17] | 4.95
[22] | 6.59
[25] | 6.87
[26] | 6.19

percent inhibition of viability [%]
Conditions | 1 nM | 10 nM | 100 nM | 1000 nM | 10000 nM
DERL-7 (IL-2 2.5 ng/mL) [5] | -0.77 | 2.31 | -12.6 | 19.6 | 101
IMC-1 (IL-2 20 ng/mL) [7] | 1.06 | 3.1 | 5.35 | 15.8 | 100
KAI3 (IL-2 2.5 ng/mL) [6] | 12.7 | 9.96 | 3.38 | 35.1 | 103
KHYG-1 (IL-2 2.5 ng/mL) [2] | 6.52 | 2.23 | 12.9 | 14.8 | 103
NK-92 (IL-2 2.5 ng/mL) [14] | 17.3 | 3.38 | 20.4 | 29.9 | 103
NK-YS (IL-2 2.5 ng/mL) [11] | 2.33 | 5.61 | 10.8 | 30.8 | 102
NKL (IL-2 2.5 ng/mL) [8] | -9.44 | 0.79 | -4.03 | 33.1 | 89.8
SNK-6 (IL-2 2.5 ng/mL) [3] | 21.2 | 8.85 | 20.2 | 23.6 | 99.5
YT (IL-2 2.5 ng/mL) [10] | 3.19 | 6.52 | 7.92 | 11.9 | 104
[4] | -3.82 | -10.6 | -8.88 | -6.27 | 97.5
[9] | 6.85 | -15.8 | -2.6 | 9.89 | 89.3
[12] | 5.44 | -1.16 | 1.98 | 8.95 | 98.1
[13] | -8.57 | -3.21 | 0.92 | 6.12 | 95
[28] | 3.02 | 8.13 | 5.46 | 27.6 | 101
